Assay results reported in PubChem BioAssay (NCI).
“And” between values parts separate entries of the source, which are not always exact repeats. Identical values can stand only once.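 How tested: cells in 96-well plates exposed to compound for 48 hours at five concentrations. GI50: concentration for 50% inhibition of growth. TGI: total growth inhibition.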 Where a SMILES comes first, the peptide text is derived from it. The star is where a group is joined. Boc = CC(C)(C)OC(=O)*

How the values were obtained:
Assay in all cases: NCI anticancer screen, dose series, 48 h
[1] = tested on: DLD-1 colon
[2] = tested on: DMS 114 small cell lung
[3] = tested on: DMS 273 small cell lung
[4] = tested on: HOP-18 NSCLC
[5] = tested on: M19-MEL melanoma
[6] = tested on: SK-MEL-28 melanoma
[7] = tested on: SNB-78 CNS
[8] = tested on: XF 498 CNS
[9] = tested on: KM20L2 colon
[10] = tested on: LXFL 529 NSCLC

| SMILES | TGI [6] | also measured |
| --- | --- | --- |
| COC(=O)c1ccc(OCc2ccc3oc(=O)c(-c4ccccc4)nc3c2)cc1 | > 100 µM | TGI [1]: 38.4 µM; TGI [2]: > 100 µM; TGI [3]: > 100 µM; TGI [4]: > 100 µM; TGI [5]: > 100 µM; TGI [7]: > 100 µM; TGI [8]: > 100 µM |
| COc1ccc(N=C/C=C/Nc2ccc(OC)cc2)cc1 | 29.1 µM | – |
| COC(=O)C(Cc1ccccc1)NC(=O)CNC(=O)CSc1nnc(COc2ccc(Cl)cc2)n1-c1ccccc1 (stereo unspecified) | 34.6 µM | – |
| NNC(=O)c1ccccc1NC(=O)/C(=C/c1ccccc1)NC(=O)c1ccccc1 | > 100 µM | – |
| COC(=O)c1c(O)ccc2c1c1c(n2C)C(=O)c2ccccc2C1=O | > 100 µM | – |
| COc1nc2c(c(=O)n1C)N[C@@H]1[C@@H](O)[C@H](O)CO[C@@H]1N2 | > 100 µM | – |
| COC1C(O)=C2C(=O)OC(C)(O)/C=C/C=C\C=C/C=C/C(c3ccccc3)NC(=O)/C=C/C=C/C=C/C=C/C2(C)C1O (stereo unspecified) | 0.175 µM and 0.927 µM | GI50 [6]: 0.257 µM |
| COc1cc2c(cc1OCCCC(=O)Nc1cc(C(=O)Nc3cc(C(=O)NCCCN(C)C)n(C)n3)n(C)n1)N=CC1CCCN1C2=O (stereo unspecified) | 30.4 µM | – |
| CC(NC(=O)C(NC(=O)OC(C)(C)C)C(C)C)C(=O)NCC(=O)O (stereo not drawn) (Boc-Val-Ala-Gly-OH; configuration not given here) | > 100 µM | – |
| COc1ccc(-c2cn3c(n2)sc2cc(C)ccc23)cc1 | > 100 µM | – |
| CN(C)Cc1cc(N=Nc2ccc(Cl)c(Cl)c2)ccc1O | 26.5 µM | – |
| CCCCCCCCOCC1S(=O)(=O)OCCOS1(=O)=O | > 100 µM | – |
| Cc1ccc(-n2c(C)nc3c2C(=O)c2ccccc2C3=O)cc1 | > 100 µM | TGI [1]: > 100 µM; TGI [3]: > 100 µM; TGI [9]: > 100 µM; TGI [10]: > 100 µM; TGI [5]: 25.7 µM; TGI [7]: > 100 µM; TGI [8]: > 100 µM |
| CSc1n[n+](C)cc(N)c1N | > 100 µM | – |
| Clc1ccc(-c2nc(-c3ccc(Cl)cc3)[s+]s2)cc1 | > 100 µM | – |
| COc1ccc(-c2cc(-c3ccc(Nc4ccnc5cc(Cl)ccc45)cc3)nc(N)c2C#N)c2ccccc12 | > 100 µM | – |
| CC1(C)CCOC(=O)C(Cl)CC1Cl (stereo unspecified) | > 100 µM | – |

| SMILES | TGI [6] | also measured |
| --- | --- | --- |
| O=C1/C(=C/c2cccs2)N=C(c2ccccc2)N1C1Nc2cc3c(cc2S1)NC(N1C(=O)/C(=C/c2cccs2)N=C1c1ccccc1)S3 (stereo unspecified) | > 100 µM | – |
| COC1CCC(OC2CC(C3(C)CCC4(CC(O)C(C)C(C(C)/C=C(\C)C(=O)C(C)CC(C)C(=O)O)O4)O3)OC3(OC(C4OC(O)(CO)C(C)CC4C)CC3C)C2C)OC1C (stereo unspecified) | 0.189 µM | – |
| CC(=O)Nc1ccc(Nc2nc(=O)[nH]c(=O)[nH]2)cc1 | > 100 µM | – |
| CC(NC(=O)c1ccc(OP(=O)(OCC2=CC(=O)c3ccccc3C2=O)N(C)CCCCCl)cc1)c1ccc(OCC2CCCCC2)c(C(N)=O)c1 (stereo unspecified) | 27.2 µM | – |
| CCCc1ccc(N=Cc2cc(OC)c(OC)c(OC)c2)cc1 | > 100 µM | TGI [1]: > 100 µM; TGI [2]: > 60.6 µM; TGI [3]: > 100 µM; TGI [4]: > 100 µM; TGI [9]: > 100 µM; TGI [10]: > 100 µM; TGI [5]: > 100 µM; TGI [7]: > 100 µM; TGI [8]: > 100 µM |
| COc1cccc(-c2cc(=O)c3cc(C)cnc3[nH]2)c1 | > 100 µM | – |
| CC1=C2N3C[C@@H](n4c(=O)n(C)c(=O)n43)C23CCC1n1c(=O)n(C)c(=O)n13 | > 100 µM | TGI [1]: > 100 µM; TGI [2]: 76.3 µM; TGI [3]: > 100 µM; TGI [4]: > 100 µM; TGI [9]: > 100 µM; TGI [10]: > 100 µM; TGI [5]: > 100 µM; TGI [7]: > 100 µM; TGI [8]: > 100 µM |
| C/C(=N/O)c1cccc(Nc2nc3ccccc3c3[nH]c4ccccc4c23)c1 | 12.4 µM | – |
| c1ccc(N=NNNc2ccc(-c3nc4ccccc4[nH]3)cc2)cc1 | > 100 µM | – |
| O=C(c1cccs1)N(C(=O)N1CCC(c2ccccc2)CC1)c1ccccc1 | > 100 µM | – |
| c1ccc2c(c1)SC1Sc3ccccc3[S+]21 (stereo unspecified) | 41.4 µM | – |
| O=C1NC(N2CCOCC2)=N/C1=C\c1ccccc1O | > 100 µM | – |
| COc1ccc2nc3c([N+](=O)[O-])ccc4c3c(c2c1)NCCN4C | 6.5 µM | – |
| CC(C)n1c(=O)c2nn3c(=O)n(C(C)C)c(=O)c3nn2c1=O | > 100 µM | – |
| COC(=O)CC1C2CC3C(C2=O)C13 (stereo unspecified) | > 100 µM | – |
| COc1cc2[nH]c(-c3ccccc3)cc(=O)c2cc1OC | > 100 µM | – |
